Reference: ChEMBL document CHEMBL4304775, “Identification and characterization of a novel chemotype for human TLR8 inhibitors” (Eur J Med Chem, 2019)
Active and inactive are the calls of the source. No cut-off for these calls is given here.

How the values were obtained:
[1] = target: Toll-like receptor 3 (Homo sapiens) (UniProt O15455); assay: […] at TLR3 in human THP1 cells assessed as inhibition of poly(I:C)-induced IL-8 secretion preincubated for 1 hr followed by poly(I:C)-stimulation and measured after 24 hrs by ELISA; format: cell-based
Toll-like receptor 3 (Homo sapiens), sequence (O15455 whole entry): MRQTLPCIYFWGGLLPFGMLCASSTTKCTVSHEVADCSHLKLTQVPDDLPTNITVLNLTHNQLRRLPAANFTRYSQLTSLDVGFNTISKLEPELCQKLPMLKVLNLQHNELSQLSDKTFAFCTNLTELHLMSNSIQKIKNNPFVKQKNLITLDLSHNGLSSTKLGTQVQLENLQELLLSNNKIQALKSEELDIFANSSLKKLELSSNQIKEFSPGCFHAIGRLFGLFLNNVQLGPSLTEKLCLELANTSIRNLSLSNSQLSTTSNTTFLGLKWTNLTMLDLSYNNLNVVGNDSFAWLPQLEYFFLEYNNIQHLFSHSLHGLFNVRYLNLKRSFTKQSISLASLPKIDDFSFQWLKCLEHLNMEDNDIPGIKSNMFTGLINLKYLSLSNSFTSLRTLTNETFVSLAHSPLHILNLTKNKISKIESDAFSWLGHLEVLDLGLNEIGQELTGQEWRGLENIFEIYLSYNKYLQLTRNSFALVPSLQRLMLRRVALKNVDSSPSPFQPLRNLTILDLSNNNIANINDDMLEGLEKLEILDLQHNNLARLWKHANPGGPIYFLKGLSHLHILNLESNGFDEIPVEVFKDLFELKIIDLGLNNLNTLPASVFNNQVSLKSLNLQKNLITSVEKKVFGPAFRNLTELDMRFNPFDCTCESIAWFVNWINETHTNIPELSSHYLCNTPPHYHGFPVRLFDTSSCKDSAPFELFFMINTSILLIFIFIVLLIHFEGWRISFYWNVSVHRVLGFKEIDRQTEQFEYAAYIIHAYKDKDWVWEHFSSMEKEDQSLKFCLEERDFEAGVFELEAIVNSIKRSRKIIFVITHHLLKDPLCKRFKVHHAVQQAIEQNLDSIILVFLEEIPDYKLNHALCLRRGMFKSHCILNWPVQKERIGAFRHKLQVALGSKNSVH

[2] = Cytotoxicity against human HEK-Blue cells transfected with hTLR8 at 25 to 50 uM after 24 hrs by MTT assay; format: cell-based
[3] = target: T1, Toll-like receptor 8 (Homo sapiens) (UniProt Q9NR97); assay: Activation of human TLR8 expressed in HEK-Blue cells assessed as increase in NF-kappaB activation at 5 to 25 uM incubated for 24 hrs by quanti-blue SEAP assay; format: cell-based
T1 sequence (whole entry): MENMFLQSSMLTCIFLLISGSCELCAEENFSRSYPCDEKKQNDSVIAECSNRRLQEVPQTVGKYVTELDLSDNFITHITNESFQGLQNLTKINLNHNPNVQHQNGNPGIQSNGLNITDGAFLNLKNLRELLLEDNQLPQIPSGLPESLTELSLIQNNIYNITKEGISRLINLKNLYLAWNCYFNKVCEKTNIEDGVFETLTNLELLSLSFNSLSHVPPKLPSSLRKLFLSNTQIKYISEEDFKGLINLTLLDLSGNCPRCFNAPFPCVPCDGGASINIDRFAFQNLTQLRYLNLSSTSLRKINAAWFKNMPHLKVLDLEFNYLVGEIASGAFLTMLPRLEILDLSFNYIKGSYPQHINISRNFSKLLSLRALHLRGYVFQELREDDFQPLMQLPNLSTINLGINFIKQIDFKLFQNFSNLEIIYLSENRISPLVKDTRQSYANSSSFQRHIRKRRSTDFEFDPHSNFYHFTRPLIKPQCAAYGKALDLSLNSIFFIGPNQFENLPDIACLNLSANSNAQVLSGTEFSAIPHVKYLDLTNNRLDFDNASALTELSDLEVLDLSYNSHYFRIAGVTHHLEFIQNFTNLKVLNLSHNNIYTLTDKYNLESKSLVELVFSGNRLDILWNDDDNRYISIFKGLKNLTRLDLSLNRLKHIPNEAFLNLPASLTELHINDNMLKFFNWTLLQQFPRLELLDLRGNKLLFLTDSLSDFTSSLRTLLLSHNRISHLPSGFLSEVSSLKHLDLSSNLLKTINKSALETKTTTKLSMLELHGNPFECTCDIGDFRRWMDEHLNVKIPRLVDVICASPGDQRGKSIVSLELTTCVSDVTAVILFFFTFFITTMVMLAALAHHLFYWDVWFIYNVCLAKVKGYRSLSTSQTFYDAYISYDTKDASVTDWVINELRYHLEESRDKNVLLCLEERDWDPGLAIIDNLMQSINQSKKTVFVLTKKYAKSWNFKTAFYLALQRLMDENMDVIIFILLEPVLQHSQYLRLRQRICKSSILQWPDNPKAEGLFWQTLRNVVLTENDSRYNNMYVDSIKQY

THP-1 [4] = assay: Cytotoxicity against human THP1 cells at 25 to 100 uM after 24 hrs by MTT assay; format: cell-based; settings: thp-1, 24 h
THP-1 [5] = assay: Antiinflammatory activity in human THP1 cells assessed as reduction in CL075-induced TNF secretion at 10 to 25 uM preincubated for 1 hr followed by CL075-stimulation and measured after 4 hrs by ELISA relative to control; format: functional
THP-1 [6] = assay: Antiinflammatory activity in human THP1 cells assessed as reduction in CL075-induced IL-8 secretion at 10 to 25 uM preincubated for 1 hr followed by CL075-stimulation and measured after 24 hrs by ELISA relative to control; format: functional
[7] = target: T2, Toll-like receptor 7 (Homo sapiens) (UniProt Q9NYK1); assay: Antagonist activity at human TLR7 expressed in HEK-Blue cells assessed as inhibition of CL075-induced NF-kappaB activation incubated for 1 hr followed by CL075-stimulation and measured after 24 hrs by quanti-blue SEAP assay; format: cell-based
T2 sequence (whole entry): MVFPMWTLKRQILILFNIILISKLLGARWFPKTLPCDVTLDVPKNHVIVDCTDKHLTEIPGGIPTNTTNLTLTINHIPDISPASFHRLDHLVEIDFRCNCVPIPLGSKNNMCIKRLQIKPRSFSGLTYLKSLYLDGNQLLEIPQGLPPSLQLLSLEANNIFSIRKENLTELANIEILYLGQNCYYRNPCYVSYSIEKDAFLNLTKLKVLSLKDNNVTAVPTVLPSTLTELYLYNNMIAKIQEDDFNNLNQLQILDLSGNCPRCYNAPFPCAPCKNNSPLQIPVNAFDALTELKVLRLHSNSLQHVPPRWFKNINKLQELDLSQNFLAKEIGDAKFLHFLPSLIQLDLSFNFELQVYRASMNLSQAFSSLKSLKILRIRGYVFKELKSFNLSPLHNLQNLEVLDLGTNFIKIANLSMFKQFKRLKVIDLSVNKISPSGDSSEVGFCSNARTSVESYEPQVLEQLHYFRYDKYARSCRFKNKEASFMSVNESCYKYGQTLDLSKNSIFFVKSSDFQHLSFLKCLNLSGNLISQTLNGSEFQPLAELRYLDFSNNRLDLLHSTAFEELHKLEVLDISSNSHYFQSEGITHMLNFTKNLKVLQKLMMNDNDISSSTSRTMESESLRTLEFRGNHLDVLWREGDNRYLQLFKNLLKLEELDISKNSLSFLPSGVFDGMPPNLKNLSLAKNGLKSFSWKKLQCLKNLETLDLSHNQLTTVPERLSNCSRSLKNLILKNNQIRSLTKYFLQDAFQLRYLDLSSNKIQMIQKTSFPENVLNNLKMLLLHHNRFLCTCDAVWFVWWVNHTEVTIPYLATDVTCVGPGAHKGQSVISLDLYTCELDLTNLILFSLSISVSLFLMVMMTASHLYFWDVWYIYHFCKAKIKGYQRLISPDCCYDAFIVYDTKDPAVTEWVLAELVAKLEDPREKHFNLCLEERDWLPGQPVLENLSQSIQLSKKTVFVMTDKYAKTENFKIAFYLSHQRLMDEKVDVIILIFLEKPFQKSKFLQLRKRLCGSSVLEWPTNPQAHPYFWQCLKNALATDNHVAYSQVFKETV

[8] = Cytotoxicity against human HEK-Blue cells transfected with hTLR8 assessed as reduction in cell viability at 50 uM after 24 hrs by MTT assay; format: cell-based
THP-1 [9] = assay: Cytotoxicity against human THP1 cells assessed as reduction in cell viability at 50 uM after 24 hrs by MTT assay; format: cell-based; settings: thp-1, 24 h
[10] = target: T1, Toll-like receptor 8 (Homo sapiens); assay: Antagonist activity at human TLR8 expressed in HEK-Blue cells assessed as inhibition of CL075-induced NF-kappaB activation incubated for 1 hr followed by CL075-stimulation and measured after 24 hrs by quanti-blue SEAP assay; format: cell-based

inhibition [1] | Activity [3] | inhibition [7] | inhibition [10] | SMILES | Activity [2] | Activity (THP-1 [4]) | inhibition (INH) (THP-1 [5]) | inhibition (INH) (THP-1 [6]) | Activity [8] | Activity (THP-1 [9])
inactive | inactive | inactive |  | FC(F)(F)c1cc(-c2ccccc2)nc(NCc2cccs2)n1 | Non-Toxic | Non-Toxic | 40% | >70% |  | 
inactive | inactive | inactive | Dose-dependent effect | FC(F)(F)c1cc(-c2ccco2)nc(NCc2cccs2)n1 |  |  | 40% | >70% | Toxic | Toxic
inactive | inactive | inactive |  | CCCCNc1nc(-c2cccs2)cc(C(F)(F)F)n1 | Non-Toxic | Non-Toxic | >60% | 50% |  | 
